Assay results published in patent US20250034212A1, “PEPTIDE” (PEPTIDREAM INC., priority 2021, published 2025).
Values belong to the molecule of their own block, whether it stands above or below them. Starred links: 1 amine or outer side, 2 acyl side, 3 side chain; linkers in the order of their positions; H or OH if unused. Positions of bridges follow the written chain, without caps; N, C: chain ends. Non-standard residues stand in square brackets, D forms with d. Residues, ends and D or L forms follow the SMILES beside them. Groups on a side chain read outwards from the residue. No end group written: not given here. *: point of attachment. KCOmeglumine = N6-(methyl-((2S,3R,4R,5R)-2,3,4,5,6-pentahydroxyhexyl)carbamoyl)-L-lysine, CN(C[C@H](O)[C@@H](O)[C@H](O)[C@H](O)CO)C(=O)NCCCC[C@H](N[*:1])C(=O)[*:2]; KCOpipzaa = N6-(4-(carboxymethyl)piperazine-1-carbonyl)-L-lysine, O=C(NCCCC[C@H](N[*:1])C(=O)[*:2])N1CCN(CC(=O)[*:3])CC1; Meglumine = CN(C[C@H](O)[C@@H](O)[C@H](O)[C@H](O)CO)*; Trp(6-aza) = N[C@@H](Cc1c[nH]c2cnccc12)C(=O)O; Trp(7-aza) = N[C@@H](Cc1c[nH]c2ncccc12)C(=O)O; Piperazinyl(4-CH2COOH) = O=C(O)CN1CCN(*)CC1; 1Nal = N[C@@H](Cc1cccc2ccccc12)C(=O)O; Gly(NCH2CH2Ph) = O=C(O)CNCCc1ccccc1; 4Pal = N[C@@H](Cc1ccncc1)C(=O)O; CO = O=C([*:1])[*:2]

Tests used:
[1] = target: T1, recombinant human TGF-β1 (Homo sapiens, UniProt P01137); assay: SBE reporter assay in SBE reporter-HEK293 cells, TGF-β1 stimulation; format: cell-based; details: TGF-β1 0.13 nM, 18 hours; for inhibition at 75 pM: peptide 0.075 nM; for inhibition at 0.00075 µM: peptide 0.75 nM; for inhibition at 0.0075 µM: peptide 7.5 nM; for inhibition at 0.075 µM: peptide 75.0 nM
T1 construct: purchased R&D systems
From the text: The inhibitory activity of the peptide can be calculated without limitation while the maximum signal induced by TGF-β is set to 0% inhibition and no stimulation is set to 100% inhibition. When the peptide is used at an appropriate concentration, for example, at the optimal concentration, the inhibitory activity is not limited but the inhibition is 5% or more, 10% or more, 20% or more, 30% or more, 40% or more, 50% or more, 60% or more, 70% or more, 80% or more, or 90% or more.
In this Example, the TGF-β1 inhibitory activity of the peptide of the present invention consisting of the amino acid sequence set forth in SEQ ID NOs: 2-33 synthesized in Examples 1 to 5 and 7 was evaluated by an SBE reporter assay using the SBE reporter-HEK293 cell system (BP Bioscience) as follows.
SBE reporter-HEK293 cells were cultured in E-MEM (Wako) containing 10% FBS (Sigma). The cells were detached using Accutase (Innovative Cell Technologies), suspended in E-MEM containing 0.5% FBS, seeded onto a 96-well plate(s) at a concentration of 45,000 cells per well, and cultured overnight. The next day, the peptide was added and allowed to stand for 20 min, and recombinant human TGF-β1 (R&D systems) or recombinant human TGF-β2 (R&D systems) was then added at 0.13 nM and cultured for 18 hours.
Thereafter, luciferase assay ONE-Glo reagent was added to each well and the plate was shaken for 5 min. A SpectraMax Paradigm multimode microplate reader (Molecular Devices) was then used for signal detection. The obtained signals were analyzed by GraphPad Prism. The inhibitory activity of the peptide was calculated while the maximum signal induced by TGF-β was set to 0% inhibition and no stimulation was set to 100% inhibition.

[2] = target: T2, recombinant human TGF-β1 (R&D systems) (human, UniProt P01137 279-390); assay: cell-based or functional assay
[3] = target: T2, recombinant human TGF-β1 (R&D systems); assay: cell-based or functional assay; remark: listed apart in the source

T2 sequence (P01137 279-390 limits assumed): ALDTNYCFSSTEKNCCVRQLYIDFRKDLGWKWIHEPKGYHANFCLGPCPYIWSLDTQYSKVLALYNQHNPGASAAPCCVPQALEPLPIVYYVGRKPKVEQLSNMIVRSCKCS
T1 sequence (P01137 279-390 limits assumed): as above

Molecule: CC(C)[C@@H]1NC(=O)CN(CCc2ccccc2)C(=O)[C@H](CCCCNC(=O)N(C)C[C@H](O)[C@@H](O)[C@H](O)[C@H](O)CO)NC(=O)[C@H](CC(=O)O)NC(=O)[C@H](Cc2ccncc2)NC(=O)[C@H](C(C)C)NC(=O)[C@H](CC(N)=O)NC(=O)[C@H](C(C)C)NC(=O)[C@H](C(C)C)NC(=O)[C@H](Cc2cccc3ccccc23)NC(=O)[C@H](Cc2ccccc2)NC(=O)CSC[C@@H](C(=O)NCC(N)=O)NC(=O)[C@H](C(C)C)NC(=O)[C@H](Cc2c[nH]cn2)NC(=O)[C@H](Cc2ccc(O)cc2)NC(=O)[C@H](Cc2cccc3ccccc23)NC1=O [TGFb1_015] ({CH2CO}-F[1Nal]VVNV[4Pal]DK([CO-Meglumine])[Gly(NCH2CH2Ph)]V[1Nal]YHVCG-NH2; thioether N-16)
inhibition at 75 pM [1]: 0%
inhibition at 0.00075 µM [1]: 76.9%
inhibition at 0.0075 µM [1]: 98.7%
inhibition at 0.075 µM [1]: 98.4%

Molecule: CC(C)[C@@H]1NC(=O)CN(CCc2ccccc2)C(=O)[C@H](CC(=O)O)NC(=O)[C@H](CC(=O)O)NC(=O)[C@H](Cc2ccncc2)NC(=O)[C@H](C(C)C)NC(=O)[C@H](CC(N)=O)NC(=O)[C@H](C(C)C)NC(=O)[C@H](C(C)C)NC(=O)[C@H](Cc2c[nH]c3ncccc23)NC(=O)[C@H](Cc2ccccc2)NC(=O)CSC[C@@H](C(=O)NCC(N)=O)NC(=O)[C@H](C(C)C)NC(=O)[C@H](Cc2c[nH]cn2)NC(=O)[C@H](Cc2ccc(O)cc2)NC(=O)[C@H](Cc2cccc3ccccc23)NC1=O [TGFb1_008] ({CH2CO}-F[Trp(7-aza)]VVNV[4Pal]DD[Gly(NCH2CH2Ph)]V[1Nal]YHVCG-NH2; thioether N-16)
inhibition at 75 pM [1]: 3.8%
inhibition at 0.00075 µM [1]: 56.8%
inhibition at 0.0075 µM [1]: 94.6%
inhibition at 0.075 µM [1]: 98.4%

Molecule: CC(C)[C@@H]1NC(=O)CN(CCc2ccccc2)C(=O)[C@H](CCC(=O)O)NC(=O)[C@H](CC(=O)O)NC(=O)[C@H](Cc2ccncc2)NC(=O)[C@H](C(C)C)NC(=O)[C@H](CC(N)=O)NC(=O)[C@H](C(C)C)NC(=O)[C@H](C(C)C)NC(=O)[C@H](Cc2cccc3ccccc23)NC(=O)[C@H](Cc2ccccc2)NC(=O)CSC[C@@H](C(=O)NCC(N)=O)NC(=O)[C@H](CCCCNC(=O)N2CCN(CC(=O)O)CC2)NC(=O)[C@H](Cc2c[nH]cn2)NC(=O)[C@H](Cc2ccc(O)cc2)NC(=O)[C@H](Cc2cccc3ccccc23)NC1=O [TGFb1_021] ({CH2CO}-F[1Nal]VVNV[4Pal]DE[Gly(NCH2CH2Ph)]V[1Nal]YHK([CO-Piperazinyl(4-CH2COOH)])CG-NH2; thioether N-16)
inhibition at 62 pM ([1]; peptide 0.062 nM): 10.2%
inhibition at 0.000185 µM ([1]; peptide 0.185 nM): 26.9%
inhibition at 0.00056 µM ([1]; peptide 0.56 nM): 58.9%
inhibition at 0.0017 µM ([1]; peptide 1.7 nM): 87.8%
inhibition at 0.005 µM ([1]; peptide 5.0 nM): 97.1%
inhibition at 0.015 µM ([1]; peptide 15.0 nM): 98.8%

B1: TGFb1_006 (peptide)
peptide: {CH2CO}-F[1Nal]VVNV[4Pal]DD[Gly(NCH2CH2Ph)]V[1Nal]YHVCG
modifications: thioether N-16; not fully specified (C-terminus)
notes: cyclic peptide; C-terminal G is a linker
SBE reporter % inhibition, peptide 0.075 nM [2]: 2.8%
SBE reporter % inhibition, peptide 0.75 nM [2]: 69.3%
SBE reporter % inhibition, peptide 7.5 nM [2]: 97.1%
SBE reporter % inhibition, peptide 75.0 nM [2]: 99.7%

More lines, now with the values ahead:

inhibition at 75 pM [1]: 0%
inhibition at 0.00075 µM [1]: 64.8%
inhibition at 0.0075 µM [1]: 97.2%
inhibition at 0.075 µM [1]: 98.8%
Molecule: CC(C)[C@@H]1NC(=O)CN(CCc2ccccc2)C(=O)[C@H](CC(=O)O)NC(=O)[C@H](CC(=O)O)NC(=O)[C@H](Cc2ccncc2)NC(=O)[C@H](C(C)C)NC(=O)[C@H](CC(N)=O)NC(=O)[C@H](CCCCNC(=O)N(C)C[C@H](O)[C@@H](O)[C@H](O)[C@H](O)CO)NC(=O)[C@H](C(C)C)NC(=O)[C@H](Cc2cccc3ccccc23)NC(=O)[C@H](Cc2ccccc2)NC(=O)CSC[C@@H](C(=O)NCC(N)=O)NC(=O)[C@H](C(C)C)NC(=O)[C@H](Cc2c[nH]cn2)NC(=O)[C@H](Cc2ccc(O)cc2)NC(=O)[C@H](Cc2cccc3ccccc23)NC1=O [TGFb1_014] ({CH2CO}-F[1Nal]VK([CO-Meglumine])NV[4Pal]DD[Gly(NCH2CH2Ph)]V[1Nal]YHVCG-NH2; thioether N-16)

inhibition at 75 pM [1]: 6.1%
inhibition at 0.00075 µM [1]: 76.3%
inhibition at 0.0075 µM [1]: 97.9%
inhibition at 0.075 µM [1]: 100%
Molecule: CC(C)[C@@H]1NC(=O)CN(CCc2ccccc2)C(=O)[C@H](CCCCNC(=O)N2CCN(CC(=O)O)CC2)NC(=O)[C@H](CC(=O)O)NC(=O)[C@H](Cc2ccncc2)NC(=O)[C@H](C(C)C)NC(=O)[C@H](CC(N)=O)NC(=O)[C@H](C(C)C)NC(=O)[C@H](C(C)C)NC(=O)[C@H](Cc2cccc3ccccc23)NC(=O)[C@H](Cc2ccccc2)NC(=O)CSC[C@@H](C(=O)NCC(N)=O)NC(=O)[C@H](C(C)C)NC(=O)[C@H](Cc2c[nH]cn2)NC(=O)[C@H](Cc2ccc(O)cc2)NC(=O)[C@H](Cc2cccc3ccccc23)NC1=O [TGFb1_011] ({CH2CO}-F[1Nal]VVNV[4Pal]DK([CO-Piperazinyl(4-CH2COOH)])[Gly(NCH2CH2Ph)]V[1Nal]YHVCG-NH2; thioether N-16)

inhibition at 75 pM [1]: 2%
inhibition at 0.00075 µM [1]: 63.8%
inhibition at 0.0075 µM [1]: 97.9%
inhibition at 0.075 µM [1]: 99.9%
Molecule: CC(C)[C@@H]1NC(=O)CN(CCc2ccccc2)C(=O)[C@H](CC(=O)O)NC(=O)[C@H](CC(=O)O)NC(=O)[C@H](Cc2ccncc2)NC(=O)[C@H](C(C)C)NC(=O)[C@H](CC(N)=O)NC(=O)[C@H](CCCCNC(=O)N2CCN(CC(=O)O)CC2)NC(=O)[C@H](C(C)C)NC(=O)[C@H](Cc2cccc3ccccc23)NC(=O)[C@H](Cc2ccccc2)NC(=O)CSC[C@@H](C(=O)NCC(N)=O)NC(=O)[C@H](C(C)C)NC(=O)[C@H](Cc2c[nH]cn2)NC(=O)[C@H](Cc2ccc(O)cc2)NC(=O)[C@H](Cc2cccc3ccccc23)NC1=O [TGFb1_010] ({CH2CO}-F[1Nal]VK([CO-Piperazinyl(4-CH2COOH)])NV[4Pal]DD[Gly(NCH2CH2Ph)]V[1Nal]YHVCG-NH2; thioether N-16)

inhibition at 75 pM [1]: 0%
inhibition at 0.00075 µM [1]: 0.9%
inhibition at 0.0075 µM [1]: 70.1%
inhibition at 0.075 µM [1]: 94.9%
Molecule: CC(C)[C@@H]1NC(=O)CN(CCc2ccccc2)C(=O)[C@H](CC(=O)O)NC(=O)[C@H](CC(=O)O)NC(=O)[C@H](Cc2ccc(O)cc2)NC(=O)[C@H](C(C)C)NC(=O)[C@H](CC(N)=O)NC(=O)[C@H](C(C)C)NC(=O)[C@H](C(C)C)NC(=O)[C@H](Cc2c[nH]c3cnccc23)NC(=O)[C@H](Cc2ccccc2)NC(=O)CSC[C@@H](C(=O)NCC(N)=O)NC(=O)[C@H](C(C)C)NC(=O)[C@H](Cc2c[nH]cn2)NC(=O)[C@H](Cc2ccc(O)cc2)NC(=O)[C@H](Cc2cccc3ccccc23)NC1=O [TGFb1_004] ({CH2CO}-F[Trp(6-aza)]VVNVYDD[Gly(NCH2CH2Ph)]V[1Nal]YHVCG-NH2; thioether N-16)

SBE reporter % inhibition, peptide 0.062 nM [3]: 8.58%
SBE reporter % inhibition, peptide 0.185 nM [3]: 24.4%
SBE reporter % inhibition, peptide 0.56 nM [3]: 49.7%
SBE reporter % inhibition, peptide 1.7 nM [3]: 82.3%
SBE reporter % inhibition, peptide 5.0 nM [3]: 96%
SBE reporter % inhibition, peptide 15.0 nM [3]: 99.5%
B2: TGFb1_023 (peptide)
peptide: {CH2CO}-F[1Nal]VVNV[4Pal]D[KCOmeglumine][Gly(NCH2CH2Ph)]V[1Nal]YH[KCOpipzaa]CG-NH2
modifications: thioether N-16
SMILES: CC(C)[C@@H]1NC(=O)CN(CCc2ccccc2)C(=O)[C@H](CCCCNC(=O)N(C)C[C@H](O)[C@@H](O)[C@H](O)[C@H](O)CO)NC(=O)[C@H](CC(=O)O)NC(=O)[C@H](Cc2ccncc2)NC(=O)[C@H](C(C)C)NC(=O)[C@H](CC(N)=O)NC(=O)[C@H](C(C)C)NC(=O)[C@H](C(C)C)NC(=O)[C@H](Cc2cccc3ccccc23)NC(=O)[C@H](Cc2ccccc2)NC(=O)CSC[C@@H](C(=O)NCC(N)=O)NC(=O)[C@H](CCCCNC(=O)N2CCN(CC(=O)O)CC2)NC(=O)[C@H](Cc2c[nH]cn2)NC(=O)[C@H](Cc2ccc(O)cc2)NC(=O)[C@H](Cc2cccc3ccccc23)NC1=O
